Assay results from paper PMC8353353, “Assessing reversible and irreversible binding effects of kinase covalent inhibitors through ADP-Glo assays” (STAR Protocols, 2021).

Experiments:
MKK7 [1] = biological target: T1, MKK7 (Homo sapiens, UniProt O14733, S271D/T275D); test: ADP-Glo assay with kinase-inhibitor pre-incubation step (phosphorylation of cov-JNK3 substrate by MKK7); assay type: biochemical; conditions: for luminescence intensity: raw data; for Normalized Intensity (%): normalized to Control DMSO only and Control No kinase
T1 construct: Recombinant MKK7 (full-length, S287D/T291D); made in house
T1 sequence (O14733 1-435 isoform O14733-3 S287D/T291D): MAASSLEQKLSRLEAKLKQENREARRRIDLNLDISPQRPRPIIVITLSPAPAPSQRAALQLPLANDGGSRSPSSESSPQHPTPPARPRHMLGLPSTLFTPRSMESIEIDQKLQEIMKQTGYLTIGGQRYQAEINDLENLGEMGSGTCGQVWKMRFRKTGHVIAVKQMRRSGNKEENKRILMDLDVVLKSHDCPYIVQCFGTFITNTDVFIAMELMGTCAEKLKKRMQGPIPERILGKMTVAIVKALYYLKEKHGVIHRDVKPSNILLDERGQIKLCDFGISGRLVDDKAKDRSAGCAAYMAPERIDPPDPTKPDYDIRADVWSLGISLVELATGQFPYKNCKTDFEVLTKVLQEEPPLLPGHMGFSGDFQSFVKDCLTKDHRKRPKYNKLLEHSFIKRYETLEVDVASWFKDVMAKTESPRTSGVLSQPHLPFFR
Procedure: The protocol described here uses Echo® 550 liquid handler. However, when performing with manual pipetting, adjusting pipetting volume of each component of the kinase reaction is required with an example provided in the above table. We had performed the following protocol using both pipetting methods, and observed similar assay quality with an example shown in Figure 3.
This part of the protocol describes a variation of the ADP-Glo^TM assay that includes a pre-incubation step between the tested inhibitors and MKK7 prior to an addition of ATP (Figure 4). […] Thus, apparent greater inhibitory potencies would be expected. The protocol below describes an experiment testing three inhibitors using fixed concentrations of 25 nM for MKK7 kinase, 30 μM for cov-JNK3 substrate and 100 μM for ATP with the layout of the assay plate shown in Figure 5. • 1. Thaw ADP-Glo^TM assay reagents. Place 10 mM ultra-pure ATP immediately on ice, while the other reagents can be kept at 22°C–25°C. • 2. Quick thaw MKK7 kinase and 10× cov-JNK3 substrate and spin both using benchtop centrifuge at high speed at 4°C for 10 min. Transfer clear supernatant into a new tube and keep on ice. • 3. Prepare 75 μL of 10× MKK7 kinase solution by diluting MKK7 to 250 nM in protein storage buffer. Keep the solution on ice until further use. • 4. Prepare the following mixtures and keep them on ice until further use. • a. Mixture 1: one part of 10× MKK7 kinase solution, one part of 10× cov-JNK3 substrate and eight part of the reaction buffer. For example, 500 μL of Mixture 1 contains 50 μL of 10× MKK7 kinase solution, 50 μL of 10× cov-JNK3 substrate and […] of the reaction buffer. This 500-μL Mixture 1 is adequate for approximately 100 reactions and will be used for the reactions containing inhibitors and the “Control DMSO only” wells (see Figure 5). • b. Mixture 2: one part of protein storage buffer, one part of 10× cov-JNK3 substrate and eight part of the reaction buffer. For example, 50 μL of Mixture 2 is made from 5 μL of protein storage buffer, 5 μL of 10× cov-JNK3 substrate and 45 μL of the reaction buffer. This 50-μL Mixture 2 is adequate for 10 reactions and is for the “Control No kinase” wells (see Figure 5). • c. Mixture 3: one part of 10× MKK7 kinase solution, one part of protein storage buffer and eight part of the reaction buffer. For example, 50 μL of Mixture 3 is made from 5 μL of 10× MKK7 kinase solution, 5 μL of protein storage buffer and 45 μL of reaction buffer. This 50-μL Mixture 3 is adequate for 10 reactions and is for the “Control No substrate” wells (see Figure 5) • 5. Prepare a serial dilution of inhibitors in a 384-well assay plate using the “Dose response” setting in Echo®550 acoustic liquid handler according to the manufacture’s manual. For this experiment, the dilution series of three inhibitors at 11 concentrations is prepared by the following steps (see also Figure 5 and Data S1 for an example input for Echo® dose response pipetting): • a. Prepare 5 mM inhibitor stock solutions in DMSO and transfer 25 μL of each into three different wells of an Echo® source plate. Fill the 4th well with 30 μL DMSO. • b. Use the “Dose response” program in Echo® 550 liquid handler with a DMSO backfill option to aliquot the correct volumes of the inhibitors and DMSO into each reaction wells in the assay plate according to the plate layout in Figure 5. Note that two intermediate compound dilutions will be created by the ECHO® dose response program (see Data S1 for an example input for Echo® dose response pipetting). 50 nL of DMSO should be transferred to each control well to ensure homogeneous assay conditions. The total transfer volume of 50 nL of either inhibitor alone, inhibitor plus DMSO or DMSO alone is fixed to ensure constant 1% final DMSO concentration (see Data S1 for an example input for Echo® dose response pipetting). • 6. […]

MKK7 [2] = biological target: T1, MKK7; parameters: method as in Schröder et al., 2020; conditions: with vs without kinase-inhibitor pre-incubation; Figure 6; ref Schröder et al., 2020; cited from earlier work
[3] = [Inhibitor] 1.49E-05 M (log -4.83)
[4] = [Inhibitor] 1.65E-08 M (log -7.78)
[5] = [Inhibitor] 1.65E-09 M (log -8.78)
[6] = [Inhibitor] 2.43E-10 M (log -9.62)
[7] = [Inhibitor] 2.91E-07 M (log -6.54)
[8] = [Inhibitor] 4.95E-05 M (log -4.31)
[9] = [Inhibitor] 4.95E-06 M (log -5.31)
[10] = [Inhibitor] 4.95E-09 M (log -8.31)
[11] = [Inhibitor] 8.08E-10 M (log -9.09)
[12] = [Inhibitor] 8.08E-11 M (log -10.09)
[13] = [Inhibitor] 9.71E-07 M (log -6.01)
[14] = [Inhibitor] 9.71E-08 M (log -7.01)

SMILES	luminescence intensity (MKK7 [1]; [3])	luminescence intensity (MKK7 [1]; [4])	luminescence intensity (MKK7 [1]; [5])	luminescence intensity (MKK7 [1]; [6])	luminescence intensity (MKK7 [1]; [7])	luminescence intensity (MKK7 [1]; [8])	luminescence intensity (MKK7 [1]; [9])	luminescence intensity (MKK7 [1]; [10])	luminescence intensity (MKK7 [1]; [11])	luminescence intensity (MKK7 [1]; [12])	luminescence intensity (MKK7 [1]; [13])	luminescence intensity (MKK7 [1]; [14])	Normalized Intensity (%) (MKK7 [1]; log[Inhibitor] -4.31)	Normalized Intensity (%) (MKK7 [1]; log[Inhibitor] -4.83)	Normalized Intensity (%) (MKK7 [1]; log[Inhibitor] -5.31)	Normalized Intensity (%) (MKK7 [1]; log[Inhibitor] -6.01)	Normalized Intensity (%) (MKK7 [1]; log[Inhibitor] -6.54)	Normalized Intensity (%) (MKK7 [1]; log[Inhibitor] -7.01)	Normalized Intensity (%) (MKK7 [1]; log[Inhibitor] -7.78)	Normalized Intensity (%) (MKK7 [1]; log[Inhibitor] -8.31)	also measured
CC(=O)c1cnc2ccc(-c3cc(Cl)c(O)c(Cl)c3)nc2c1N[C@H]1CC[C@H](CN(C)C)CC1 [OTSSP167]	50306	167511	188762	186492	53403	62181	22921	186941	193825	208349	43374	94669	22.55	15.89	0.52	12.00	17.63	40.78	81.65	92.55	Normalized Intensity (%) (MKK7 [1]; log[Inhibitor] -8.78): 93.57%; Normalized Intensity (%) (MKK7 [1]; log[Inhibitor] -9.09): 96.42%; Normalized Intensity (%) (MKK7 [1]; log[Inhibitor] -9.62): 92.30%; Normalized Intensity (%) (MKK7 [1]; log[Inhibitor] -10.09): 104.56%; shift of inhibitory potencies (IC50) between the two assay variants (MKK7 [2]): less pronounced
C=CC(=O)N1CCC[C@@H](n2nc(-c3ccc(Oc4ccccc4)cc3)c3c(N)ncnc32)C1 [Ibrutinib]	18884	157972	195602	176476	49318	52382	64212	138435	152383	159956	22472	121319	17.05	-1.74	23.69	0.27	15.33	55.73	76.30	65.34	Normalized Intensity (%) (MKK7 [1]; log[Inhibitor] -8.78): 97.41%; Normalized Intensity (%) (MKK7 [1]; log[Inhibitor] -9.09): 73.16%; Normalized Intensity (%) (MKK7 [1]; log[Inhibitor] -9.62): 86.68%; Normalized Intensity (%) (MKK7 [1]; log[Inhibitor] -10.09): 77.41%
